From US20250032430A1, “USES OF RHODOQUINONE FOR THE TREATMENT OF DISEASE” (Whitehead Institute for Biomedical Research, priority 2021, published 2025) come the findings set out here.

Test [1] concerns 143B cells. In words: Oxygen consumption rate of cultured cells. It is filed as cell-based, human. The note with it: UQCRC2 and COX4 knockout cells. As for the experimental part: Oxygen Consumption Rate (Seahorse): Respiration was measured on intact 143B cells and on mitochondria purified from tissue on the Seahorse XFe-96 Analyzer (Seahorse Bioscience). Cells were incubated in a non-CO2 37° C. incubator in serum-free Seahorse XF RPMI Media (Seahorse Bioscience, Catalog #103336) supplemented with 5 mM glucose, 2 mM glutamine, and 1 mM pyruvate. Oxygen consumption rate (OCR) was measured over a period of 30 minutes. Oxygen consumption rate was also measured on mitochondria purified from mouse tissues. Mitochondria were incubated in MAS buffer (70 mM sucrose, 220 mM mannitol, 10 mM KH2PO4, 5 mM MgCl2, 2 mM HEPES pH 7.2, 1 mM EGTA, 2% BSA) supplemented with 2 mM ADP, 5 mM glutamate, 5 mM malate, 5 mM pyruvate, and 2.5 mM succinate. Oxygen consumption rate (OCR) was measured over a period of 30 minutes.
Oxygen Consumption Rate (Resipher): 25,000 143B cells were seeded into Thermo Nunc Treated, Flat-Bottom 96-Well Microplate (167008) in standard culture medium 24 hours prior to experimentation. […] Live oxygen consumption rate was measured for 3 hours and then media was changed to treat cells with the appropriate inhibitors. Live oxygen consumption rate was monitored for an additional 3 hours. Data were analyzed on Resipher web application (Lucid Scientific).

A further test deals with DHODH (Homo sapiens, UniProt Q02127).
Test [2] deals with 143B cells. In words: Cell proliferation. In kind it is cell-based, human. The note with it: for proliferation: UQCRC2 and COX4 knockout cells. As for the experimental part:
Proliferation: 25,000 cells were seeded in 6-well dishes and counted on day 1 and day 5 on a Beckman Coulter Counter. Doubling times were calculated using the following equation: […]

The subject of test [3] is SDH complex. Description: SDH activity assay in permeabilized purified mitochondria. In kind it is biochemical, human. To be noted: permeabilized purified mitochondria; 1 μM piericidin. The method, then: SDH activity was examined in permeabilized purified mitochondria. The rate of succinate oxidation was measured by monitoring fumarate production over time after initiating the reaction with succinate. The rate of fumarate reduction was measured in a separate assay by monitoring the rate of succinate production over time after initiating the reaction with fumarate and NADH. […] Moreover, complex I inhibition by piericidin suppressed the fumarate reduction caused by antimycin treatment (FIG. 2I).
(§1) Isolation of Mitochondria for Biochemical Assays: 143B cells were scraped and pelleted at 1000×g for 5 minutes. Cell pellets were washed in 1×PBS and pelleted at 1000×g for 5 minutes. For tissue samples, approximately 100 mg of tissue powder was weighed out. Tissue powder or cells were re-suspended in isolation buffer (200 mM sucrose, 10 mM Tris HCl, 1 mM EGTA/Tris, pH 7.4 (adjusted with 1M HEPES)), transferred into an ice-cold glass homogenizer (VWR), and dounced with 15-30 strokes. Homogenates were transferred into tubes and spun at 600×g for 10 minutes at 4° C. Supernatants were moved to a new tube and centrifugation was repeated. Then, supernatants were moved to a new tube and pelleted at 7,000×g for 10 minutes at 4° C. Pellets were washed in isolation buffer and centrifugation was repeated. Pellets were subsequently stored at −80° C. until use.
SDH Activity Assay: Purified mitochondria were re-suspended in buffer (0.22 M Mannitol, 0.075 M Sucrose, 1 mM EDTA, 10 mM HEPES pH 7.4, and one complete Protease inhibitor tablet (Sigma)) to a concentration of 5 mg/mL and underwent 5 freeze-thaw cycles to permeabilize them. 30 μg mitochondria (6 uL) were diluted 1:10 (in 54 uL) of SDH activity assay buffer (27.5 mM KH2PO4 pH 7.4, 1.1 mM CoQ-10 (Sigma), 3.5 g/L BSA). Reactions were supplemented with DMSO, 1 μM antimycin, or 1 μM piericidin and pre-incubated at 37° C. for 10 minutes. […] Samples were centrifuged at 16,000×g for 10 minutes at 4° C. and supernatants were dried down and analyzed by LC-MS for succinate and fumarate.

Test [4] has as its target T1, SDH complex (Homo sapiens, UniProt O14521+P21912+P31040+Q99643).
T1 construct: endogenous in cells; host or cells: 143B cells (A5: live cells; A6: permeabilized mitochondria purified from them)
In words: SDH forward/reverse activity (succinate oxidation, fumarate reduction) by stable isotope tracing in cells. It is filed as cell-based. The text has this:
Fumarate reduction can be monitored in cells by the stable isotope tracing of either ^13C4-aspartate or ^13C5^15N2-glutamine. ^13C4-aspartate contributes to the fumarate pool via oxaloacetate and malate and so should lead to the production of ^13C4-succinate upon fumarate reduction (FIG. 2B). ^13C5^15N2-glutamine contributes to the fumarate pool through the reductive arm of the TCA cycle via glutamate, α-ketoglutarate, isocitrate, citrate, oxaloacetate, and malate. A key distinction between the two labeling approaches is that ^13C5^15N2-glutamine enriches the fumarate pool more upon antimycin treatment due to enhanced reductive carboxylation flux, whereas ^13C4-aspartate labels the fumarate pool to equivalent extents in vehicle and antimycin-treated cells (FIG. 2C). Therefore, with stable isotope tracing of ^13C4-aspartate, the level of ^13C4-succinate is a direct measure of fumarate reduction, whereas the stable isotope tracing of ^13C5^15N2-glutamine requires a ratiometric analysis of labeled succinate to labeled fumarate to normalize for differences in the extent of fumarate labeling.
To test if hypoxia triggers electron leakage onto fumarate or a net-reversal of the SDH complex, the ^13C5^15N2-glutamine tracer was utilized, which enables simultaneous quantification of the forward and reverse activities of SDH through the generation of unique isotopologues upon flux through the oxidative arm (α-ketoglutarate to succinate) compared to the reductive arm (α-ketoglutarate—via citrate—to fumarate) of the TCA cycle (FIG. 2E). In this assay, the forward (succinate oxidation) reaction was defined as the ratio of percent labeled ^13C4-fumarate to its precursor ^13C4-succinate (FIG. 2E) and the reverse (fumarate reduction) as that of percent labeled ^13C3-succinate to its precursor ^13C3-fumarate (FIG. 2E). This type of analysis can be performed when the labeling is in the steady-state, which was determined to be after 4-8 hours of incubation with ^13C5^15N2-glutamine (FIG. S2E-F). This ratiometric analysis of the succinate and fumarate isotopologues eliminates potential biases in the assay, such as higher ^13C3-fumarate labeling in antimycin-treated cells caused increased reductive carboxylation flux (FIG. S2E).
Stable isotope tracing in cells: Cells were seeded 24 hours prior to the experiment in 6-well dishes at 70% density. For stable isotope tracing of glutamine, glutamine-free DMEM (ThermoFisher) was supplemented with 2 mM ^13C5^15N2-glutamine (Sigma), 1 mM pyruvate, 5% FBS, 1% P/S, 0.1 mg/mL uridine. For stable isotope tracing of aspartate, DMEM containing 5% FBS, and 1% penicillin and streptomycin, and 0.1 mg/mL uridine (Sigma) was supplemented with the designated amount of 13C4-aspartate (Sigma) and the pH adjusted to 7.4. Uridine was left out of the media for stable isotope tracing experiments measuring nucleotide biosynthesis. Unless otherwise stated, for all experiments, cells were treated for 8 hours and metabolites were isolated as described below. Relevant compounds were added at the start of the incubation periods.

Test [5] concerns mitochondrial membrane potential. Description: Mitochondrial membrane potential (TMRE dye). It is filed as cell-based, human. To be noted: 250 nM CCCP. As for the experimental part:
Live Cell Imaging: 143B cells were seeded at 50% density in 6-well dishes 24 hours prior to the experiment. Cells were pre-incubated with 500 nM TMRE dye for 30 minutes and then imaging on a Nikon TE2000 inverted microscope was started. Images were taken at 1 minute intervals over the course of an hour in the mCherry channel while the plate was incubated in a chamber maintaining a temperature of 37° C. and 5% CO2.
Flow Cytometry: Cells were seeded 24 hours prior to the experiment at 50% density. On the day of the experiment, the cells were treated for the designated time with inhibitors. 30 minutes prior to the end of the incubation, 500 nM TMRE dye was added to the wells. Following incubation cells were washed, trypsinized, and filtered through a cell strainer prior to sorting. Fluorescence-activated cell sorting was performed on a LSR-II sorter, in which the fluorescence intensity of individual cells was quantified in the PE channel. Data were analyzed using FlowJo software (TreeStar).

The subject of a further test is complex I. Description: Complex I activity assay (DCPIP) on purified mitochondria. The note with it: mitochondria from wild-type, UQCRC2 KO and COX4 KO 143B cells; 1 μM rotenone. It is filed as biochemical, human. As for the experimental part:
as §1
Complex 1 activity assay (DCPIP): Purified mitochondria were re-suspended in buffer (0.22 M Mannitol, 0.075 M Sucrose, 1 mM EDTA, 10 mM HEPES pH 7.4, and one complete Protease inhibitor tablet (Sigma)) to a concentration of 5 mg/mL. […] Either 1 μM rotenone or equivalent DMSO was added to each well and baseline absorbance at 600 nm was measured on a SpectraMax iD5 plate reader (Molecular Devices). Reactions were initiated by adding NADH (Sigma) to a final concentration of 2 mM and absorbance at 600 nm was monitored over time.

DHODH, sequence (Q02127 whole entry): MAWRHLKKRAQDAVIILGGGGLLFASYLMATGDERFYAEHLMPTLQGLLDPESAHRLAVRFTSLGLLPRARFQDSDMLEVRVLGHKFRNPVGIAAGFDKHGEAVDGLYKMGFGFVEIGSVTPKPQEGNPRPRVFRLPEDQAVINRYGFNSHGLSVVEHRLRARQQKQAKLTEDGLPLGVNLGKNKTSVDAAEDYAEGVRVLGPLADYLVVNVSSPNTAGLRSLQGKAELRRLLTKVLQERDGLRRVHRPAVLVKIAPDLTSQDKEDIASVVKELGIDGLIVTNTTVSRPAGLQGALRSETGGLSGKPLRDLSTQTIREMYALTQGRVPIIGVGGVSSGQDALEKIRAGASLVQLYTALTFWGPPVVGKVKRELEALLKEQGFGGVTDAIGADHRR
T1 sequence (P31040 43-664): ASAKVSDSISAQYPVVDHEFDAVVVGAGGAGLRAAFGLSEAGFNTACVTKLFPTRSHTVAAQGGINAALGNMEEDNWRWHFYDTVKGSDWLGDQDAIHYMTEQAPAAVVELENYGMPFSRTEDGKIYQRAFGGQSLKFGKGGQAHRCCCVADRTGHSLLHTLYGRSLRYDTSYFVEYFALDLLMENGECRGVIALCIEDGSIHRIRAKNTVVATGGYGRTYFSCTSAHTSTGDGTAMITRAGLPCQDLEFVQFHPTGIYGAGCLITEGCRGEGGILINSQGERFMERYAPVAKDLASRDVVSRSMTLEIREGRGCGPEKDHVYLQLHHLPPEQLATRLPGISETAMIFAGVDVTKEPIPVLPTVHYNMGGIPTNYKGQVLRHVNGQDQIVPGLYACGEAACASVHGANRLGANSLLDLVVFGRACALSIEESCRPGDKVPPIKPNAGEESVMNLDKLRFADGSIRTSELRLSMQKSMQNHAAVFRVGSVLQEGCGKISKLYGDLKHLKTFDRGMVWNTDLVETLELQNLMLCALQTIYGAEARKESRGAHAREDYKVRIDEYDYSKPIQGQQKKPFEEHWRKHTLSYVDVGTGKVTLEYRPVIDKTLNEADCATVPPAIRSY
T1 sequence (P21912 29-280): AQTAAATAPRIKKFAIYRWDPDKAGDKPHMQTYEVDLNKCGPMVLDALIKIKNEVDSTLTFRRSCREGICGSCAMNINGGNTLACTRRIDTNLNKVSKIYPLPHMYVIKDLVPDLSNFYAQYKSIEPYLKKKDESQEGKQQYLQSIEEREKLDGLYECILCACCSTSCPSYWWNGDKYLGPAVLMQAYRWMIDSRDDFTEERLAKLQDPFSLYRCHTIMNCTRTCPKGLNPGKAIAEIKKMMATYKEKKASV
T1 sequence (Q99643 30-169): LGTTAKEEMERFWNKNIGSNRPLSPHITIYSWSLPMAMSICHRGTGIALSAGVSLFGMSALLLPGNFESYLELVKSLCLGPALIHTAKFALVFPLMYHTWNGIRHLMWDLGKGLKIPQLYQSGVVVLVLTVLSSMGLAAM
T1 sequence (O14521 57-159): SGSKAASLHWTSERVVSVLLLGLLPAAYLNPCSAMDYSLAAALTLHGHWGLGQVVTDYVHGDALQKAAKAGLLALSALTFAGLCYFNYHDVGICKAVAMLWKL
Experimental for DHODH: Isolation of metabolites from adherent cells: To isolate metabolites, media was removed, cells were washed 2 times with ice cold 1×PBS, and wells were covered in LC-MS grade 80:20 Methanol:Water (ThermoFisher). Plates were scraped on dry ice and lysates were collected into eppendorf tubes. Lysates were vortexed for 10 minutes at 4° C. and centrifuged at 16,000×g for 10 minutes at 4° C. Supernatants were immediately dried down in a Refrigerated CentriVap Benchtop Vacuum Concentrator connected to a CentriVap-105 Cold Trap (Labconco). Dried pellets were stored at −80° C. until they were run on LC-MS.
Liquid Chromatography and Mass Spectrometry (polar): A QExactive bench top orbitrap mass spectrometer equipped with an Ion Max source and a HESI II probe coupled to a Dionex UltiMate 3000 HPLC system (Thermo Fisher Scientific) was used to perform all LC-MS experiments. The instrument underwent mass calibration using the standard calibration mixture every 7 days. 2 μL of re-suspended polar metabolite samples were injected onto a SeQuant ZIC-pHILIC 5 μm 150×2.1 mm analytical column equipped with a 2.1×20 mm guard column (MilliporeSigma). The column oven was held at 25° C. and the autosampler tray was held at 4° C. Buffer A was comprised of 20 mM ammonium carbonate, 0.1% ammonium hydroxide. Buffer B was comprised of 100% acetonitrile. The chromatographic gradient was run at a flow rate of 0.150 mL/min as follows: 0-20 min: linear gradient from 80-20% B; 20-20.5 min: linear gradient from 20-80% B; 20.5-28 min: hold at 80% B. The mass spectrometer was operated in full-scan, polarity-switching mode, with the spray voltage set to 3.0 kV, the heated capillary at 275° C., and the HESI probe at 350° C. The sheath gas flow was 40 units, the auxiliary gas flow was 15 units, and the sweep gas flow was 1 unit. MS data was collected in a range of m/z=70-1000. The resolution set at 70,000, the AGC target at 1×106, and the maximum injection time at 20 msec. An additional scan (m/z=220-700) was included in negative mode only to enhance detection of nucleotides.

For the compound `C/C=C(\C)[C@H](O)[C@H](C)/C=C(C)/C=C/C/C(C)=C/Cc1nc(OC)c(OC)c(O)c1C` [piericidin], in the test with 143B cells [1], the O2 consumption rate result is “did not affect”. Moreover, the “DHODH activity (13C4-aspartate into 13C3-UTP)” value at DHODH (combined inhibition of complex III with antimycin and complex I with piericidin) was “no effect”. Further, the proliferation entry in the test with 143B cells [2] is “did reduce their proliferation, although to a lesser extent than in wild-type cells”. The “fumarate reduction caused by antimycin treatment” value in the test on SDH complex [3] is reported as “suppressed”.

Turning to `COC(=O)CCC(=O)OC` [dimethylsuccinate], the “increase in fumarate reduction caused by antimycin treatment” value on SDH complex [4] (143B cells, antimycin co-treatment) is on record as “slightly suppressed”.

In the case of `N#CC(C#N)=NNc1cccc(Cl)c1` [CCCP, Carbonyl cyanide 3-chlorophenylhydrazone], the TMRE fluorescence result in test [5] is recorded as “reduced fluorescence”.

As to `Cc1c(-c2ccc(-c3ccccc3F)cc2)nc2ccc(F)cc2c1C(=O)O` [brequinar], in the test with 143B cells [1], the O2 consumption rate entry is on record as “no effect”. Besides, the 13C3-UTP biosynthesis entry on DHODH (UQCRC2 and COX4 knockout 143B cells, 2 μM brequinar) was “ablated”. In addition, on DHODH (wild-type 143B cells, 13C4-aspartate tracing 8 hours, 500 nM antimycin, 2 μM brequinar), the “de novo UTP biosynthesis (13C3-UTP generation, DHODH activity)” value is recorded as “ablated”. For the same compound, in the test on 143B cells [2], the proliferation entry is recorded as “reduced”. The “aspartate-increased proliferation of antimycin-treated cells” value in the test on 143B cells [2] (culture media supplemented with aspartate, antimycin-treated cells) is “ablated”.

Consider `C=C(C)[C@H]1Cc2c(ccc3c2O[C@@H]2COc4cc(OC)c(OC)cc4[C@@H]2C3=O)O1` [rotenone], for which, in the test on complex I, the “complex I activity” value is “significantly reduced”.

Consider `CC1(C)CC(NC(=O)C[P+](c2ccccc2)(c2ccccc2)c2ccccc2)CC(C)(C)N1[O]` [MitoTEMPO], for which the fumarate reduction result is given as “did not affect” on SDH complex [4] (antimycin-treated 143B cells) and “significant decrease” on SDH complex [4] (vehicle-treated 143B cells).

`O=C(O)CC(=O)O` [malonic acid]: the fumarate reduction entry is reported as “no effect” on SDH complex [4] (SDHB knockout cells); “almost completely ablated” at SDH complex [4] (UQCRC2 and COX4 knockout cells). For the same compound, in the test with 143B cells [2], the proliferation entry was “significantly reduced”.
